In ChEMBL document CHEMBL5126592, “Design, synthesis and activity against drug-resistant bacteria evaluation of C-20, C-23 modified 5-O-mycaminosyltylonolide derivatives” (Eur J Med Chem, 2022):
≈ marks a conversion by molar mass, not a printed value. Calls of active or inactive are those of the source. No cut-off for these calls is given here.

Key:
[1] = system: Streptococcus dysgalactiae; test: Antibacterial activity against Streptococcus dysgalactiae incubated for 16 to 20 hrs by broth microdilution method; format: functional; conditions: time 16-20 hrs
[2] = system: Staphylococcus aureus; test: Antibacterial activity against Staphylococcus aureus ATCC 29213 at pH 8.6 incubated for 16 to 20 hrs in presence of 50% foetal bovine serum by broth microdilution method; format: functional; conditions: time 16-20 hrs
[3] = system: Staphylococcus aureus; test: Antibacterial activity against Staphylococcus aureus ATCC 25923 infected in kunming mouse assessed as reduction in bacterial load at 20 to 40 mg/kg, iv measured after 1 hr; format: functional, organism-based; conditions: dose 20-40 mg/kg
[4] = Genotoxicity in Salmonella typhimurium TA102 assessed as number of revertants at 2x10^-4 mg/plate incubated for 72 hrs in presence of liver S9 fraction by Ames test (reference value: 465.33 +/- 18.04); format: toxicity, subcellular; conditions: salmonella enterica subsp. enterica serovar typhimurium, s9, 72 h
[5] = Genotoxicity in Salmonella typhimurium TA102 assessed as number of revertants at 1x10^-3 mg/plate incubated for 72 hrs in presence of liver S9 fraction by Ames test (reference value: 465.33 +/- 18.04); format: toxicity, subcellular; conditions: salmonella enterica subsp. enterica serovar typhimurium, s9, 72 h
[6] = Genotoxicity in Salmonella typhimurium TA102 assessed as number of revertants at 1x10^-3 mg/plate incubated for 72 hrs in absence of liver S9 fraction by Ames test (reference value: 386.67 +/- 23.44); format: toxicity; conditions: salmonella enterica subsp. enterica serovar typhimurium, s9, 72 h
[7] = Genotoxicity in Salmonella typhimurium TA1537 assessed as number of revertants at 8x10^-6 mg/plate incubated for 72 hrs in absence of liver S9 fraction by Ames test (reference value: 22.67 +/- 2.52); format: toxicity; conditions: salmonella enterica subsp. enterica serovar typhimurium, s9, 72 h
[8] = system: Pseudomonas aeruginosa; test: Antibacterial activity against Pseudomonas aeruginosa LTP-3 incubated for 16 to 20 hrs by broth microdilution method; format: functional; conditions: time 16-20 hrs
[9] = system: Escherichia coli; test: Antibacterial activity against Escherichia coli ATCC 25922 incubated for 16 to 20 hrs in presence of 10% foetal bovine serum by broth microdilution method; format: functional; conditions: time 16-20 hrs
[10] = system: Escherichia coli; test: Antibacterial activity against Escherichia coli ATCC 25922 at pH 8.4 incubated for 16 to 20 hrs by broth microdilution method; format: functional; conditions: time 16-20 hrs
[11] = system: Staphylococcus aureus; test: Antibacterial activity against Staphylococcus aureus ATCC 29213 incubated for 16 to 20 hrs using 10^6 CFU/ml bacterial inoculum by broth microdilution method; format: functional; conditions: time 16-20 hrs
[12] = system: Staphylococcus aureus; test: Antibacterial activity against Staphylococcus aureus ATCC 29213 at pH 6.8 incubated for 16 to 20 hrs by broth microdilution method; format: functional; conditions: time 16-20 hrs
[13] = system: Escherichia coli; test: Antibacterial activity against Escherichia coli ATCC 25922 incubated for 16 to 20 hrs in absence of foetal bovine serum by broth microdilution method; format: functional; conditions: time 16-20 hrs
[14] = Genotoxicity in Salmonella typhimurium TA102 assessed as number of revertants at 4x10^-5 mg/plate incubated for 72 hrs in presence of liver S9 fraction by Ames test (reference value: 465.33 +/- 18.04); format: toxicity, subcellular; conditions: salmonella enterica subsp. enterica serovar typhimurium, s9, 72 h
[15] = system: Escherichia coli; test: Antibacterial activity against Escherichia coli ATCC 25922 at pH 7.8 incubated for 16 to 20 hrs by broth microdilution method; format: functional; conditions: time 16-20 hrs
[16] = Genotoxicity in Salmonella typhimurium TA100 assessed as number of revertants at 8x10^-6 mg/plate incubated for 72 hrs in presence of liver S9 fraction by Ames test (reference value: 204.33 +/- 8.14); format: toxicity, subcellular; conditions: salmonella enterica subsp. enterica serovar typhimurium, s9, 72 h
[17] = Toxicity in Kunming mouse infected with Staphylococcus aureus ATCC 25923 assessed as normal alveolar size and morphology at 20 to 40 mg/kg, iv measured after 1 hr by hematoxylin and eosin staining based microscopic analysis; format: organism-based; conditions: in vivo, dose 20-40 mg/kg
[18] = Genotoxicity in Salmonella typhimurium TA102 assessed as number of revertants at 1.6x10^-6 mg/plate incubated for 72 hrs in absence of liver S9 fraction by Ames test (reference value: 386.67 +/- 23.44); format: toxicity; conditions: salmonella enterica subsp. enterica serovar typhimurium, s9, 72 h
[19] = Genotoxicity in Salmonella typhimurium TA1535 assessed as number of revertants at 1x10^-3 mg/plate incubated for 72 hrs in presence of liver S9 fraction by Ames test (reference value: 15.33 +/- 2.52); format: toxicity, subcellular; conditions: salmonella enterica subsp. enterica serovar typhimurium, s9, 72 h
[20] = Genotoxicity in Salmonella typhimurium TA98 assessed as number of revertants at 1.6x10^-6 mg/plate incubated for 72 hrs in absence of liver S9 fraction by Ames test (reference value: 57.33 +/- 3.06); format: toxicity; conditions: salmonella enterica subsp. enterica serovar typhimurium, s9, 72 h
[21] = Genotoxicity in Salmonella typhimurium TA102 assessed as number of revertants at 1.6x10^-6 mg/plate incubated for 72 hrs in presence of liver S9 fraction by Ames test (reference value: 465.33 +/- 18.04); format: toxicity, subcellular; conditions: salmonella enterica subsp. enterica serovar typhimurium, s9, 72 h
[22] = Genotoxicity in Salmonella typhimurium TA1535 assessed as number of revertants at 2x10^-4 mg/plate incubated for 72 hrs in absence of liver S9 fraction by Ames test (reference value: 14.33 +/- 0.58); format: toxicity; conditions: salmonella enterica subsp. enterica serovar typhimurium, s9, 72 h
[23] = system: Escherichia coli; test: Antibacterial activity against Escherichia coli ATCC 25922 at pH 8.2 incubated for 16 to 20 hrs by broth microdilution method; format: functional; conditions: time 16-20 hrs
[24] = Genotoxicity in Salmonella typhimurium TA102 assessed as number of revertants at 8x10^-6 mg/plate incubated for 72 hrs in presence of liver S9 fraction by Ames test (reference value: 465.33 +/- 18.04); format: toxicity, subcellular; conditions: salmonella enterica subsp. enterica serovar typhimurium, s9, 72 h
[25] = Genotoxicity in Salmonella typhimurium TA98 assessed as number of revertants at 8x10^-6 mg/plate incubated for 72 hrs in presence of liver S9 fraction by Ames test (reference value: 43.67+/- 7.1); format: toxicity, subcellular; conditions: salmonella enterica subsp. enterica serovar typhimurium, s9, 72 h
[26] = Toxicity in Kunming mouse infected with Staphylococcus aureus ATCC 25923 assessed as normal alveolar wall thickness at 20 to 40 mg/kg, iv measured after 1 hr by hematoxylin and eosin staining based microscopic analysis; format: organism-based; conditions: in vivo, dose 20-40 mg/kg
[27] = system: Escherichia coli; test: Antibacterial activity against Escherichia coli ATCC 25922 incubated for 16 to 20 hrs using 10^5 CFU/ml bacterial inoculum by broth microdilution method; format: functional; conditions: time 16-20 hrs
[28] = system: Escherichia coli; test: Induction of drug resistance in Escherichia coli ATCC 25922 assessed as increase in MIC measured after 30 passages by broth microdilution method; format: functional
[29] = Genotoxicity in Salmonella typhimurium TA98 assessed as number of revertants at 2x10^-4 mg/plate incubated for 72 hrs in absence of liver S9 fraction by Ames test (reference value: 57.33 +/- 3.06); format: toxicity; conditions: salmonella enterica subsp. enterica serovar typhimurium, s9, 72 h
[30] = Genotoxicity in Salmonella typhimurium TA1537 assessed as number of revertants at 1.6x10^-6 mg/plate incubated for 72 hrs in absence of liver S9 fraction by Ames test (reference value: 22.67 +/- 2.52); format: toxicity; conditions: salmonella enterica subsp. enterica serovar typhimurium, s9, 72 h
[31] = system: Staphylococcus aureus; test: Antibacterial activity against Staphylococcus aureus ATCC 29213 at pH 7.6 incubated for 16 to 20 hrs by broth microdilution method; format: functional; conditions: time 16-20 hrs
[32] = Genotoxicity in Salmonella typhimurium TA100 assessed as number of revertants at 2x10^-4 mg/plate incubated for 72 hrs in absence of liver S9 fraction by Ames test (reference value: 221.67 +/- 15.57); format: toxicity; conditions: salmonella enterica subsp. enterica serovar typhimurium, s9, 72 h
[33] = Genotoxicity in Salmonella typhimurium TA1537 assessed as number of revertants at 8x10^-6 mg/plate incubated for 72 hrs in presence of liver S9 fraction by Ames test (reference value: 20 +/- 5); format: toxicity, subcellular; conditions: salmonella enterica subsp. enterica serovar typhimurium, s9, 72 h

For `CC[C@H]1OC(=O)C[C@@H](O)[C@H](C)[C@@H](O[C@@H]2O[C@H](C)[C@@H](O)[C@H](N(C)C)[C@H]2O)[C@@H](CCN(C)Cc2cn(-c3cnc4ccccc4c3)nn2)C[C@@H](C)C(=O)/C=C/C(C)=C/[C@@H]1CN1CCCCCC1`, the MIC [1] was 0.25 µg/mL (≈ 0.277 µM), the MIC [2] was 2 µg/mL and the Activity [3] was “Active”. For the same compound, the Activity [4] was 456.67, the Activity [5] was 449.33 and the Activity [6] was 418. The Activity [7] was 21.33, the MIC [8] was 0.5 µg/mL (≈ 0.554 µM) and the MIC [9] was 2 µg/mL. It also gave an MIC [10] of 0.25 µg/mL (≈ 0.277 µM), an MIC [11] of 0.25 µg/mL (≈ 0.277 µM) and an MIC [12] of 4 µg/mL (≈ 4.43 µM). For the same compound, the MIC [13] was 1 µg/mL (≈ 1.11 µM), the Activity [14] was 433.33 and the MIC [15] was 0.5 µg/mL (≈ 0.554 µM). The Activity [16] was 167, the Activity [17] was “Non-Toxic” and the Activity [18] was 371.33. The Activity [19] was 11, the Activity [20] was 64.33 and the Activity [21] was 449.33. The Activity [22] was 10.33, the MIC [23] was 0.25 µg/mL (≈ 0.277 µM) and the Activity [24] was 466.67. The Activity [25] was 45.67, the Activity [26] was “Non-Toxic” and the MIC [27] was 0.5 µg/mL (≈ 0.554 µM). The Activity [28] was “Active”, the Activity [29] was 61.33 and the Activity [30] was 14.33. The MIC [31] was 0.25 µg/mL (≈ 0.277 µM), the Activity [32] was 223.33 and the Activity [33] was 17.67.
